System: 276233-004-R-J1-PDC complex spheroid viability
Experiment: Anticancer human tumor 276233-004-R-J1-PDC patient-derived colon adenocarcinoma cell line growth inhibition [GQUAD]
Conditions: for IC50: curve of first compound; for viability, T/C: stronger effect = lower value
Procedure, shortened: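 Viability of tumor cells grown as complex spheroids with endothelial and stromal cells, exposed to drug combinations. Top concentration at or near clinical Cmax (else 10 microM), diluted in half-log increments.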

[1] = second compound 0.0316 µM, first compound 0.0316 µM
[2] = second compound 0.0316 µM, first compound 0.1 µM
[3] = second compound 0.0316 µM, first compound 0.316 µM
[4] = second compound 0.0316 µM, first compound 1 µM
[5] = second compound 0.0316 µM, first compound 3.16 µM
[6] = second compound 0.0316 µM, first compound 10 µM
[7] = second compound 0.1 µM, first compound 0.0316 µM
[8] = second compound 0.1 µM, first compound 0.1 µM
[9] = second compound 0.1 µM, first compound 0.316 µM
[10] = second compound 0.1 µM, first compound 1 µM
[11] = second compound 0.1 µM, first compound 3.16 µM
[12] = second compound 0.1 µM, first compound 10 µM
[13] = second compound 0.316 µM, first compound 0.0316 µM
[14] = second compound 0.316 µM, first compound 0.1 µM
[15] = second compound 0.316 µM, first compound 0.316 µM
[16] = second compound 0.316 µM, first compound 1 µM
[17] = second compound 0.316 µM, first compound 3.16 µM
[18] = second compound 0.316 µM, first compound 10 µM
[19] = second compound 1 µM, first compound 0.0316 µM
[20] = second compound 1 µM, first compound 0.1 µM
[21] = second compound 1 µM, first compound 0.316 µM
[22] = second compound 1 µM, first compound 1 µM
[23] = second compound 1 µM, first compound 3.16 µM
[24] = second compound 1 µM, first compound 10 µM
[25] = second compound 3.16 µM, first compound 0.0316 µM
[26] = second compound 3.16 µM, first compound 0.1 µM
[27] = second compound 3.16 µM, first compound 0.316 µM
[28] = second compound 3.16 µM, first compound 1 µM
[29] = second compound 3.16 µM, first compound 3.16 µM
[30] = second compound 3.16 µM, first compound 10 µM
[31] = second compound 10 µM, first compound 0.0316 µM
[32] = second compound 10 µM, first compound 0.1 µM
[33] = second compound 10 µM, first compound 0.316 µM
[34] = second compound 10 µM, first compound 1 µM
[35] = second compound 10 µM, first compound 3.16 µM
[36] = second compound 10 µM, first compound 10 µM
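Further: spheroids exposed to drugs for seven days.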
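Wherever viability, T/C is given: 100% = DMSO vehicle control viability.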

Q: How did the IC50 (second compound 0.0316 µM) turn out when `C#Cc1c(F)ccc2cc(O)cc(-c3ncc4c(N5CC6CCC(C5)N6)nc(OCC56CCCN5CC(F)C6)nc4c3F)c12` (centres undefined) + Cc1[nH]c2ccc(F)cc2c1-c1nc2c3cccnc3c3ncccc3c2[nH]1 was run?
A: > 10000 nM

Q: What about the IC50 (second compound 0.1 µM) of the same compound?
A: 2500 nM

Q: What about the IC50 (second compound 0.316 µM) of the same compound?
A: 1130 nM

Q: What about the IC50 (second compound 1 µM) of the same compound?
A: 208 nM

Q: What about the IC50 (second compound 3.16 µM) of the same compound?
A: < 31.6 nM

Q: And the IC50 (second compound 10 µM)?
A: < 31.6 nM

Q: And the viability, T/C [1]?
A: 89%

Q: And the viability, T/C [2]?
A: 85.2%

Q: What about the viability, T/C [3] of the same compound?
A: 89.2%

Q: And the viability, T/C [4]?
A: 71.7%

Q: What about the viability, T/C [5] of the same compound?
A: 57.2%

Q: What about the viability, T/C [6] of the same compound?
A: 51.2%

Q: And the viability, T/C [7]?
A: 80.2%

Q: What about the viability, T/C [8] of the same compound?
A: 80.3%

Q: What about the viability, T/C [9] of the same compound?
A: 82.5%

Q: And the viability, T/C [10]?
A: 73.8%

Q: And the viability, T/C [11]?
A: 44%

Q: And the viability, T/C [12]?
A: 34.1%

Q: And the viability, T/C [13]?
A: 68.4%

Q: And the viability, T/C [14]?
A: 67.4%

Q: What about the viability, T/C [15] of the same compound?
A: 57%

Q: What about the viability, T/C [16] of the same compound?
A: 56%

Q: And the viability, T/C [17]?
A: 33.8%

Q: What about the viability, T/C [18] of the same compound?
A: 27.4%

Q: What about the viability, T/C [19] of the same compound?
A: 70.3%

Q: What about the viability, T/C [20] of the same compound?
A: 48.7%

Q: What about the viability, T/C [21] of the same compound?
A: 48.7%

Q: And the viability, T/C [22]?
A: 39.7%

Q: And the viability, T/C [23]?
A: 40%

Q: And the viability, T/C [24]?
A: 26.2%

Q: What about the viability, T/C [25] of the same compound?
A: 19.1%

Q: And the viability, T/C [26]?
A: 14.9%

Q: What about the viability, T/C [27] of the same compound?
A: 12.7%

Q: And the viability, T/C [28]?
A: 13.6%

Q: And the viability, T/C [29]?
A: 9.51%

Q: And the viability, T/C [30]?
A: 17.4%

Q: And the viability, T/C [31]?
A: 35.7%

Q: And the viability, T/C [32]?
A: 41.8%

Q: And the viability, T/C [33]?
A: 35.7%

Q: What about the viability, T/C [34] of the same compound?
A: 34.2%

Q: And the viability, T/C [35]?
A: 28.1%

Q: And the viability, T/C [36]?
A: 15.6%

Q: For `CC1COCCN1c1cc(C2(O)CC3CCC(C2)O3)c2cnn(-c3ccn[nH]3)c2n1` (centres undefined) + Cc1[nH]c2ccc(F)cc2c1-c1nc2c3cccnc3c3ncccc3c2[nH]1, which IC50 (second compound 0.0316 µM) is on record?
A: > 10000 nM

Q: What about the IC50 (second compound 0.1 µM) of the same compound?
A: 3110 nM

Q: And the IC50 (second compound 0.316 µM)?
A: 2610 nM

Q: And the IC50 (second compound 1 µM)?
A: 665 nM

Q: What about the IC50 (second compound 3.16 µM) of the same compound?
A: 71.2 nM

Q: What about the IC50 (second compound 10 µM) of the same compound?
A: < 31.6 nM

Q: And the viability, T/C [1]?
A: 91%

Q: And the viability, T/C [2]?
A: 68%

Q: And the viability, T/C [3]?
A: 79%

Q: And the viability, T/C [4]?
A: 72.5%

Q: And the viability, T/C [5]?
A: 55.6%

Q: What about the viability, T/C [6] of the same compound?
A: 51%

Q: And the viability, T/C [7]?
A: 74.6%

Q: And the viability, T/C [8]?
A: 87%

Q: And the viability, T/C [9]?
A: 74.8%

Q: What about the viability, T/C [10] of the same compound?
A: 60.4%

Q: What about the viability, T/C [11] of the same compound?
A: 52.8%

Q: And the viability, T/C [12]?
A: 44.5%

Q: And the viability, T/C [13]?
A: 87.2%

Q: And the viability, T/C [14]?
A: 76.1%

Q: And the viability, T/C [15]?
A: 57.4%

Q: And the viability, T/C [16]?
A: 62.7%

Q: And the viability, T/C [17]?
A: 54%

Q: And the viability, T/C [18]?
A: 36%

Q: And the viability, T/C [19]?
A: 60.4%

Q: What about the viability, T/C [20] of the same compound?
A: 70%

Q: What about the viability, T/C [21] of the same compound?
A: 65.6%

Q: And the viability, T/C [22]?
A: 41.7%

Q: What about the viability, T/C [23] of the same compound?
A: 39.6%

Q: And the viability, T/C [24]?
A: 27.9%

Q: And the viability, T/C [25]?
A: 51.4%

Q: What about the viability, T/C [26] of the same compound?
A: 50.9%

Q: And the viability, T/C [27]?
A: 43.2%

Q: What about the viability, T/C [28] of the same compound?
A: 36%

Q: And the viability, T/C [29]?
A: 33.2%

Q: What about the viability, T/C [30] of the same compound?
A: 26.2%

Q: And the viability, T/C [31]?
A: 46.3%

Q: And the viability, T/C [32]?
A: 44.3%

Q: What about the viability, T/C [33] of the same compound?
A: 42.5%

Q: What about the viability, T/C [34] of the same compound?
A: 35.9%

Q: What about the viability, T/C [35] of the same compound?
A: 26.7%

Q: What about the viability, T/C [36] of the same compound?
A: 21.6%

Reference: PubChem BioAssay AID2060496 (Molecular Pharmacology Branch, DTP, NCI, 2025)
